Reference: US9668967B2, “Lipid formulations comprising a thiolated antioxidant” (CAMURUS AB, priority 2008, dated 2017)

How the values were obtained:
[1] = Exploratory stability study of glucagon lipid formulations, 25° C./60% RH for 7 days (NP HPLC); type: physicochemical; conditions: for assayed GLU content as % of initial (time zero) GLU content (FIG. 3): antioxidant 0.3 wt % (BHT 0.1 wt %), compared with antioxidant-free control
Protocol: To prevent breakdown of glucagon resulting from oxidation of the methionine residue (giving Met(O)27glucagon), an antioxidant may be included in the compositions of the present invention. To establish the most suitable antioxidant, various common and less common antioxidants were tested in the peptide/lipid system of the present invention.
Note that the antioxidant content in the respective formulations, except for the reference formulations (#229 and #234), was 0.3 wt % for tocopherol (α-TOC), acsorbyl palmitate (AscPalm) and mono-thioglycerol (MTG) and 0.1 wt % for butyl hydroxytoluene (BHT). Samples containing MTG were #233 and 235.
In FIG. 3, the assayed GLU content after storage at 25° C./60% RH for 7 days is plotted as the % of initial (time zero) GLU content.
Because the assay is based on a normal phase (NP) HPLC column, degradation products with RR<1 are more hydrophobic compared with GLU whereas more hydrophilic degradation products give RR>1.

[2] = Hydrogen peroxide stress test of buprenorphine lipid formulations (HPLC); type: physicochemical
Protocol: Lipid formulations of BUP also containing antioxidant were prepared in the following way: First, a liquid lipid stock solution of SPC/GDO/EtOH/antioxidant (or a reference stock solution without antioxidant) in the required proportions were prepared by weighing of all components into glass vials followed by mixing by end-over-end rotation for about 8 h or until completely homogenous liquids were obtained. Thereafter, BUP (powder) was added to achieve a nominal concentration of 7.9 wt % in all cases. The antioxidants were added in an amount corresponding to common previous use in pharmaceutical products.
The following stress test was performed to evaluate the effect of the four different antioxidants (Table 1): Oxidative degradation was induced by adding 20 μL, H2O2 (30%)/mL formulation followed by equilibration of the formulations for 48 hours at RT (dark). Analysis of BUP and any oxidation degradation product (DP) in the formulations was performed by HPLC (reversed phase column) with UV detection at 288 nm.
The protective effect of different MTG concentrations was assessed by performing a stress test according to Example 1. […] The formulations were thereafter analysed by HPLC as described in Example 1 and the relative area % of the main oxidation degradation product (DP) peak (relative retention RR=1.053) was determined.

[3] = storage at 25° C./60% RH for 7 days

Row | SMILES | suppressing the oxidative degradation of glucagon ([1]; compared with other lipid soluble antioxidants) | formation of Met(O)27glucagon (degradation products with RR>1, % Total Area, FIG. 4) [1, 3] | assayed GLU content as % of initial (time zero) GLU content (FIG. 3) [1, 3] | protecting BUP from oxidation degradation in the lipid formulation, compared with reference formulation ([2]; H2O2 treated formulations, Table 2) | protective effect of different MTG concentrations on main oxidation DP (FIG. 1) ([2]; MTG 0-1.0 wt % in BUP/SPC/GDO/EtOH=7.9/41.1/41.1/10.0 wt %, H2O2, 48 hours at RT (dark))
1 | OCC(O)CS (stereo not drawn) [MTG, Mono-thioglycerol] | more efficient than other lipid soluble antioxidants | most efficient | best oxidation protection | clearly superior | significant protective effect
2 | CCCCCCCCCCCCCCCC(=O)OC[C@H](O)[C@H]1OC(=O)C(O)=C1O [AscPalm, acsorbyl palmitate, reference compound] |  |  | degrading of glucagon |  | 
